# Measured values reported in patent US11045448B2, “Piperidines as covalent menin inhibitors” (THE REGENTS OF THE UNIVERSITY OF MICHIGAN, priority 2017, dated 2021).
# pIC50: −log10 of the molar value.
# Target: menin protein (Homo sapiens (Human), UniProt O00255)
# Experiment: Fluorescence polarization (FP) competitive binding assay, menin binding affinity
# Conditions: menin protein 4 nM, probe 2 nM, room temperature 30 minutes
# Protocol: A fluorescence polarization (FP) competitive binding assay was used to determine the binding affinities of representative menin inhibitors. A FAM labeled fluorescent probe was designed and synthesized based on a MLL1 peptide (FAM-MM2). Equilibrium dissociation constant (Kd) value of FAM-MM2 to menin protein was determined from protein saturation experiments by monitoring the total fluorescence polarization of mixtures composed with the fluorescent probe at a fixed concentration and the protein with increasing concentrations up to full saturation. Serial dilutions of the protein were mixed with FAM-MM2 to a final volume of 200 μl in the assay buffer (PBS with 0.02% Bovine γ-Globulin and 4% DMSO. 0.01% Triton X-100 was added right before assays). Final FAM-MM2 concentration was 2 nM. Plates were incubated at room temperature for 30 minutes with gentle shaking to assure equilibrium. FP values in millipolarization units (mP) were measured using the Infinite M-1000 plate reader (Tecan U.S., Research Triangle Park, N.C.) in Microfluor 1 96-well, black, v-bottom plates (Thermo Scientific, Waltham, Mass.) at an excitation wavelength of 485 nm and an emission wavelength of 530 nm.
# The IC50, see Table 3, of representative Compounds of the Disclosure were determined in a competitive binding experiment. Mixtures of 5 μl of the tested compounds in DMSO and 195 μl of preincubated protein/probe complex solution in the assay buffer were added into assay plates which were incubated at room temperature for 30 minutes with gentle shaking. Final concentration of the menin protein was 4 nM, and final probe concentration is 2 nM. Negative controls containing protein/probe complex only (equivalent to 0% inhibition), and positive controls containing only free probes (equivalent to 100% inhibition), were included in each assay plate. FP values were measured as described above. IC50 values were determined by nonlinear regression fitting of the competition curves.
# Chain of menin protein (O00255 whole entry): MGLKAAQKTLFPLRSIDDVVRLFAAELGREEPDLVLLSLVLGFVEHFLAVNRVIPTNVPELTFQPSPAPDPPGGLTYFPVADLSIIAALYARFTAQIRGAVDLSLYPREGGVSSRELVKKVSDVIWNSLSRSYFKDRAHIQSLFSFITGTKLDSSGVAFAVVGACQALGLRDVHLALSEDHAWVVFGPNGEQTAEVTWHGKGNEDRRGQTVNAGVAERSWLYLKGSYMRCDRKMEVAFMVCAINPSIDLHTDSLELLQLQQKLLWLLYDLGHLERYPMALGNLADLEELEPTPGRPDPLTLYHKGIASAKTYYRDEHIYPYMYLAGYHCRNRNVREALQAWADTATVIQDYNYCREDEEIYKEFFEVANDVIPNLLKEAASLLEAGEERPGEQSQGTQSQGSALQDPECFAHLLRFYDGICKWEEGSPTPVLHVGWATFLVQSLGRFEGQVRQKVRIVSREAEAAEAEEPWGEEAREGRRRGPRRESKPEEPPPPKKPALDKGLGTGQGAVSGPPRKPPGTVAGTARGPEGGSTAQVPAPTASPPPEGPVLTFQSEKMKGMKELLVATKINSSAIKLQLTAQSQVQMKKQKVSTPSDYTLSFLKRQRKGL
row,pIC50,SMILES
1,7.38,"C=CC(=O)Nc1cccc(S(=O)(=O)c2ccc(N3CC(F)(CN4CCC([C@@](C#N)(c5cccc(F)c5)[C@H]5CCC[C@@H]5NC(=O)OC)CC4)C3)cc2)c1 [Cpd. No. 12, methyl ((1S,2R)-2-((S)-(1-((1-(4-((3-acrylamidophenyl)sulfonyl)phenyl)-3-fluoroazetidin-3-yl)methyl)piperidin-4-yl)(cyano)(3-fluorophenyl)methyl)cyclopentyl)carbamate]"
2,8.70,"C=CC(=O)Nc1cccc(S(=O)(=O)c2ccc(N3CC(F)(CN4CCC([C@@](Cn5ccnc5CC)(c5cccc(F)c5)[C@H]5CCC[C@@H]5NC(=O)OC)CC4)C3)cc2)c1 [Cpd. No. 9, methyl ((1S,2R)-2-((S)-1-(1-((1-(4-((3-acrylamidophenyl)sulfonyl)phenyl)-3-fluoroazetidin-3-yl)methyl)piperidin-4-yl)-2-(2-ethyl-1H-imidazol-1-yl)-1-(3-fluorophenyl)ethyl)cyclopentyl)carbamate]"
3,< 5.00,"C=CC(=O)Nc1cccc(S(=O)(=O)c2ccc(N3CC(CN4CCC([C@](C#N)(c5cccc(F)c5)[C@H]5CCC[C@@H]5NC(=O)OC)CC4)C3)cc2)c1 [Cpd. No. 70, methyl ((1S,2R)-2-((R)-(1-((1-(4-((3-acrylamidophenyl)sulfonyl)phenyl)azetidin-3-yl)methyl)piperidin-4-yl)(cyano)(3-fluorophenyl)methyl)cyclopentyl)carbamate]"
4,8.15,"C=CC(=O)N[C@H]1CCC[C@@H]1[C@](C#N)(c1cccc(F)c1)C1CCN(CC2CN(c3ccc(C#N)cc3)C2)CC1 [Cpd. No. 80, N-((1S,2R)-2-((S)-cyano(1-((1-(4-cyanophenyl)azetidin-3-yl)methyl)piperidin-4-yl)(3-fluorophenyl)methyl)cyclopentyl)acrylamide]"
5,8.40,"C#CC(=O)N[C@H]1CCC[C@@H]1[C@](C#N)(c1cccc(F)c1)C1CCN(CC2CN(c3ccc(C#N)cc3)C2)CC1 [compound 82, N-((1S,2R)-2-((S)-cyano(1-((1-(4-cyanophenyl)azetidin-3-yl)methyl)piperidin-4-yl)(3-fluorophenyl)methyl)cyclopentyl)propiolamide]"
6,8.70,"C=CC(=O)N1CC(S(=O)(=O)c2ccc(N3CC(F)(CN4CCC([C@@](Cn5ccnc5CC)(c5cccc(F)c5)[C@H]5CCC[C@@H]5NC(=O)OC)CC4)C3)cc2)C1 [Cpd. No. 16, methyl ((1S,2R)-2-((S)-1-(1-((1-(4-((1-acryloylazetidin-3-yl)sulfonyl)phenyl)-3-fluoroazetidin-3-yl)methyl)piperidin-4-yl)-2-(2-ethyl-1H-imidazol-1-yl)-1-(3-fluorophenyl)ethyl)cyclopentyl)carbamate]"
7,8.70,"C=CC(=O)Nc1ccc(S(=O)(=O)c2ccc(N3CC(CN4CCC([C@@](C#N)(c5cccc(F)c5)[C@H]5CCC[C@@H]5OC(=O)NC)CC4)C3)cc2)cc1 [Cpd. No. 10, (1S,2R)-2-((S)-(1-((1-(4-((4-acrylamidophenyl)sulfonyl)phenyl)azetidin-3-yl)methyl)piperidin-4-yl)(cyano)(3-fluorophenyl)methyl)cyclopentyl methylcarbamate]"
8,8.70,"C=CC(=O)N1CC(S(=O)(=O)c2ccc(N3CC(CN4CCC([C@@](Cn5ccnc5CC)(c5cccc(F)c5)[C@H]5CCC[C@@H]5NC(=O)OC)CC4)C3)cc2)C1 [Cpd. No. 8, methyl ((1S,2R)-2-((S)-1-(1-((1-(4-((1-acryloylazetidin-3-yl)sulfonyl)phenyl)azetidin-3-yl)methyl)piperidin-4-yl)-2-(2-ethyl-1H-imidazol-1-yl)-1-(3-fluorophenyl)ethyl)cyclopentyl)carbamate]"
9,8.40,"C=CC(=O)Nc1ccc(S(=O)(=O)c2ccc(N3CC(CN4CCC([C@@](C#N)(c5cccc(F)c5)[C@H]5CCC[C@@H]5NC(=O)OC)CC4)C3)cc2)cc1 [Cpd. No. 61, methyl ((1S,2R)-2-((S)-(1-((1-(4-((4-acrylamidophenyl)sulfonyl)phenyl)azetidin-3-yl)methyl)piperidin-4-yl)(cyano)(3-fluorophenyl)methyl)cyclopentyl)carbamate]"
10,< 5.00,"C=CC(=O)N1CC(S(=O)(=O)c2ccc(OCCOc3ccc([C@](C#N)(c4cccc(F)c4)[C@H]4CCC[C@@H]4NC(=O)OC)cc3)cc2)C1 [Cpd. No. 65, methyl ((1S,2R)-2-((S)-(4-(2-(4-((1-acryloylazetidin-3-yl)sulfonyl)phenoxy)ethoxy)phenyl)(cyano)(3-fluorophenyl)methyl)cyclopentyl)carbamate]"
11,8.22,"COC(=O)N[C@H]1CCC[C@@H]1[C@](C#N)(c1cccc(F)c1)C1C[C@@H](C)N(CC2CN(c3ccc(S(=O)(=O)C4CN(C(=O)/C=C/CN(C)C)C4)cc3)C2)[C@@H](C)C1 (stereo partly drawn) [Cpd. No. 75, methyl ((1S,2R)-2-((1S)-cyano((2R,6S)-1-((1-(4-((1-((E)-4-(dimethylamino)but-2-enoyl)azetidin-3-yl)sulfonyl)phenyl)azetidin-3-yl)methyl)-2,6-dimethylpiperidin-4-yl)(3-fluorophenyl)methyl)cyclopentyl)carbamate]"
12,8.05,"N#Cc1ccc(N2CC(CN3CCC([C@@](C#N)(c4cccc(F)c4)[C@H]4CCC[C@@H]4NC(=O)CCl)CC3)C2)cc1 [compound 81, 2-chloro-N-((1S,2R)-2-((S)-cyano(1-((1-(4-cyanophenyl)azetidin-3-yl)methyl)piperidin-4-yl)(3-fluorophenyl)methyl)cyclopentyl)acetamide]"
13,8.30,"COC(=O)N[C@H]1CCC[C@@H]1[C@](C#N)(c1cccc(F)c1)C1CCN(CC2CN(c3ccc(S(=O)(=O)c4cccc(NC(=O)/C=C/CN5CCOCC5)c4)cc3)C2)CC1 [Cpd. No. 58, methyl ((1S,2R)-2-((S)-cyano(3-fluorophenyl)(1-((1-(4-((3-((E)-4-morpholinobut-2-enamido)phenyl)sulfonyl)phenyl)azetidin-3-yl)methyl)piperidin-4-yl)methyl)cyclopentyl)carbamate]"
14,8.40,"C/C=C/C(=O)Nc1cccc(S(=O)(=O)c2ccc(N3CC(CN4CCC([C@@](C#N)(c5cccc(F)c5)[C@H]5CCC[C@@H]5NC(=O)OC)CC4)C3)cc2)c1 [Cpd. No. 62, methyl ((1S,2R)-2-((S)-(1-((1-(4-((3-((E)-but-2-enamido)phenyl)sulfonyl)phenyl)azetidin-3-yl)methyl)piperidin-4-yl)(cyano)(3-fluorophenyl)methyl)cyclopentyl)carbamate]"
15,6.43,"C=CC(=O)N1CC(S(=O)(=O)c2ccc(N3CC(CN4CCC([C@](C#N)(c5cccc(F)c5)[C@H]5CCC[C@@H]5OC(=O)NC)CC4)C3)cc2)C1 [Cpd. No. 2, (1S,2R)-2-((R)-(1-((1-(4-((1-acryloylazetidin-3-yl)sulfonyl)phenyl)azetidin-3-yl)methyl)piperidin-4-yl)(cyano)(3-fluorophenyl)methyl)cyclopentyl methylcarbamate]"
16,8.40,"COC(=O)N[C@H]1CCC[C@@H]1[C@](C#N)(c1cccc(F)c1)C1CCN(CC2CN(c3ccc(S(=O)(=O)C4CN(C(=O)/C=C/CN5CCCCC5)C4)cc3)C2)CC1 [Cpd. No. 71, methyl ((1S,2R)-2-((S)-cyano(3-fluorophenyl)(1-((1-(4-((1-((E)-4-(piperidin-1-yl)but-2-enoyl)azetidin-3-yl)sulfonyl)phenyl)azetidin-3-yl)methyl)piperidin-4-yl)methyl)cyclopentyl)carbamate]"
17,8.40,"COC(=O)N[C@H]1CCC[C@@H]1[C@](C#N)(c1cccc(F)c1)C1CCN(CC2CN(c3ccc(S(=O)(=O)C4CN(C(=O)/C=C/CN5CCOCC5)C4)cc3)C2)CC1 [Cpd. No. 59, methyl ((1S,2R)-2-((S)-cyano(3-fluorophenyl)(1-((1-(4-((1-((E)-4-morpholinobut-2-enoyl)azetidin-3-yl)sulfonyl)phenyl)azetidin-3-yl)methyl)piperidin-4-yl)methyl)cyclopentyl)carbamate]"
18,7.62,"C=CC(=O)N1CC(S(=O)(=O)c2ccc(N3CC(F)(CN4CCC([C@@](C#N)(c5cccc(F)c5)[C@H]5CCC[C@@H]5NC(=O)OC)CC4)C3)cc2)C1 [Cpd. No. 13, methyl ((1S,2R)-2-((S)-(1-((1-(4-((1-acryloylazetidin-3-yl)sulfonyl)phenyl)-3-fluoroazetidin-3-yl)methyl)piperidin-4-yl)(cyano)(3-fluorophenyl)methyl)cyclopentyl)carbamate]"
19,8.15,"COC(=O)N[C@H]1CCC[C@@H]1[C@](C#N)(c1cccc(F)c1)C1CCN(CCCOc2ccc(S(=O)(=O)C3CN(C(=O)/C=C/CN(C)C)C3)cc2)CC1 [Cpd. No. 68, methyl ((1S,2R)-2-((S)-cyano(1-(3-(4-((1-((E)-4-(dimethylamino)but-2-enoyl)azetidin-3-yl)sulfonyl)phenoxy)propyl)piperidin-4-yl)(3-fluorophenyl)methyl)cyclopentyl)carbamate]"
